Data published in patent US20130337564A1, “Treatment of Pluripotent Cells” (Janssen Biotech, Inc., priority 2012, published 2013).

Key:
Format in all cases: cell-based
[1] = system: cells expressing pluripotency markers derived from human embryonic stem cells; experiment: MTS viability (toxicity) assay of cells expressing pluripotency markers; parameters: Raw data (duplicate), first replicate / Average: unit not given here; settings: for Raw data (duplicate), first replicate / Raw data (duplicate), second replicate: MTS viability assay raw reading; for Raw data (duplicate), first replicate: replicate 1; for Raw data (duplicate), second replicate: replicate 2; for Average: average of duplicate MTS raw readings
Procedure, shortened: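 A GSK-3B inhibitor library was screened for toxicity to pluripotency-marker-expressing cells. Compound was given in DMEM:F12 with 0.5% FCS and 100 ng/ml Activin A for two days, then replaced by medium with 2% FCS and Activin A. On day 4, MTS absorbance at 490 nm gave viability as percent of Activin A plus Wnt3a control wells.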

[2] = system: human embryonic stem cells (H9 line); experiment: High content screening assay: cell number (proliferative response)
Procedure: (§1) Maintenance of human embryonic stem cells (H9 line) was conducted as described in Example 1. Colonies of cells were maintained in an undifferentiated, pluripotent state with passage on average every four days. Passage was performed by exposing cell cultures to a solution of collagenase (1 mg/ml; Sigma-Aldrich) for 10 to 30 minutes at 37° C. followed by gentle scraping with a pipette tip to recover cell clusters. Clusters were allowed to sediment by gravity, followed by washing to remove residual collagenase. Cell clusters were split at a 1:3 ratio for routine maintenance culture or a 1:1 ratio for immediate assay. The human embryonic stem cell lines used were maintained at passage numbers less than passage 50 and routinely evaluated for normal karyotypic phenotype and absence of mycoplasma contamination.
(§2) Cell clusters used in the assay were evenly resuspended in normal culture medium and plated onto MATRIGEL-coated 96-well Packard VIEWPLATES (PerkinElmer) in volumes of […]. MEF conditioned medium supplemented with 8 ng/ml bFGF was used for initial plating and recovery. Daily feeding was conducted by aspirating spent culture medium from each well and replacing with an equal volume of fresh medium. Plates were maintained at 37° C., 5% CO2 in a humidified box throughout the duration of assay.
(§3) Screening was conducted using test compounds from a proprietary library of small molecules selected for their ability to inhibit GSK-3B enzyme activity. Compounds from this library were made available as 1 mM stocks, in a 96-well plate format in 50 mM HEPES, 30% DMSO. Screening compounds were tested in triplicate or duplicate sets. Primary screening assays were initiated by aspirating culture medium from each well followed by three washes in PBS to remove residual growth factors and serum. Test volumes of 80 to 100 μl per well were added back containing DMEM:F12 base medium (Invitrogen) supplemented with 0.5% FCS (HyClone) and 100 ng/ml activin A (R&D Biosystems) plus 10 μM test compound. Positive control wells contained the same base medium, substituting 10-20 ng/ml Wnt3a (R&D Biosystems) for the test compound. Negative control wells contained base medium with 0.5% FCS and activin A alone (AA only) or alternatively, 0.5% FCS without activin A or Wnt3a (no treatment). Wells were aspirated and fed again with identical solutions on day 2 of assay. On days 3 and 4, all assay wells were aspirated and converted to DMEM:F12 supplemented with 2% FCS and 100 ng/ml activin A (without test compound or Wnt3a); parallel negative control wells were maintained in DMEM:F12 base medium with 2% FCS and activin A (AA only) or alternatively, 2% FCS without activin A (no treatment).
(§4) At the end of culture, cells in 96-well plates were fixed with 4% paraformaldehyde at room temperature for 20 minutes, washed three times with PBS, and then permeabilized with 0.5% Triton X-100 for 20 minutes at room temperature. Alternatively, cells were fixed with ice cold 70% ethanol overnight at −20° C., washed three times with PBS, and then permeabilized with Triton X-100 for 5 minutes at 4° C. After fixing and permeabilizing, cells were washed again three times with PBS and then blocked with 4% chicken serum (Invitrogen) in PBS for 30 minutes at room temperature. Primary antibodies (goat anti-human Sox17 and goat anti-human HNF-3beta; R&D Systems) were diluted 1:100 in 4% chicken serum and added to cells for one hour at room temperature. Alexa Fluor 488 conjugated secondary antibody (chicken anti-goat IgG; Molecular Probes) was diluted 1:200 in PBS and added after washing the cells three times with PBS. To counterstain nuclei, 5 mM Draq5 (Alexis Biochemicals) was added for five minutes at room temperature. Cells were washed once with PBS and left in […] PBS for imaging.
(§5) Cells were imaged using an IN Cell Analyzer 1000 (GE Healthcare) utilizing the 51008bs dichroic for cells stained with Draq5 and Alexa Fluor 488. […]

[3] = system: Sox17 expression in human embryonic stem cells (H9 line); experiment: High content screening assay: Sox17 protein expression (differentiation); settings: for SOX-17 Expression Fold over Wnt 3a/AA control: total intensity normalised to Wnt 3a/AA control
Procedure: as §1, §2, §3, §4, §5

[4] = system: HNF-3beta expression in human embryonic stem cells (H9 line); experiment: High content screening assay: HNF-3beta protein expression (differentiation); settings: for HNF3β Expression, Fold over Wnt 3a/AA control: 10 μM test compound with 100 ng/ml activin A on days 1-2, H9, total intensity by IN Cell Analyzer, strong and moderate hits; for HNF-3b Expression Fold over Wnt 3a/AA control: total intensity normalised to Wnt 3a/AA control
Procedure: as §1, §2, §3, §4, §5

[5] = viability of cells expressing pluripotency markers, relative to control
[6] = 10 μM test compound with 100 ng/ml activin A on days 1-2, H9, total cell number by IN Cell Analyzer, strong and moderate hits
[7] = cell number in the wells analysed for HNF-3b expression
[8] = cell number in the wells analysed for HNF-3b expression, normalised to Wnt 3a/AA control
[9] = cell number in the wells analysed for SOX-17 expression
[10] = cell number in the wells analysed for SOX-17 expression, normalised to Wnt 3a/AA control
[11] = 10 μM test compound with 100 ng/ml activin A on days 1-2, H9, total intensity by IN Cell Analyzer, strong and moderate hits

Row | SMILES | Raw data (duplicate), first replicate [1] | Raw data (duplicate), second replicate [1] | Average [1] | % Control [1, 5] [%] | Proliferative Response Fold over Wnt 3a/AA control [2, 6] | Proliferative Response Total cells [2, 7] | Proliferative Response Fold over Wnt 3a/AA control [2, 8] [fold] | Proliferative Response Total cells [2, 9] | Proliferative Response Fold over Wnt 3a/AA control [2, 10] [fold] | SOX17 Expression, Fold over Wnt 3a/AA control [3, 11] | SOX-17 Expression Total Intensity [3] | SOX-17 Expression Fold over Wnt 3a/AA control [3] [fold] | HNF3β Expression, Fold over Wnt 3a/AA control [4] | HNF-3b Expression Total Intensity [4] | HNF-3b Expression Fold over Wnt 3a/AA control [4] [fold] | viability at 10 µM ([1]; Homo sapiens, Embryonic stem cell, viability of cells expressing pluripotency markers, relative to control) [%] | fold induction at 10 µM ([2]; Homo sapiens, Embryonic stem cell, 10 μM test compound with 100 ng/ml activin A on days 1-2, H9, total cell number by IN Cell Analyzer, strong and moderate hits, read-out: Proliferative Response, Fold over Wnt 3a/AA control) | fold induction at 10 µM ([3]; Homo sapiens, Embryonic stem cell, 10 μM test compound with 100 ng/ml activin A on days 1-2, H9, total intensity by IN Cell Analyzer, strong and moderate hits, read-out: SOX17 Expression, Fold over Wnt 3a/AA control)
1 | COCCN1CCOCCn2cc(c3ccccc32)C2=C(C(=O)NC2=O)c2nn(c3ccccc23)CCOCC1 [Compound 10, 11-(2-Methoxyethyl)-6,7,10,11,12,13,15,16-octahydro-9H,23H-5,26-(azeno)-17,22-(metheno)dibenzo[k,q]pyrrolo[3,4-n][1,7,4,10,19]dioxatriazacyclohenicosine-23,25(24H)-dione] | 0.601 | 0.620 | 0.611 | 72.2 | 0.8926 Fold over Wnt 3a/AA control | 4507 | 0.8926 | 4645.5 | 0.5829 | 0.6864 Fold over Wnt 3a/AA control | 257295000 | 0.6864 | 0.6803 Fold over Wnt 3a/AA control | 312605000 | 0.6803 | – | – | –
2 | CN1CCCn2cc(c3ccccc32)C2=C(C(=O)NC2=O)c2cn(c3ccccc23)CCOCCOCC1 [Compound 3, 14-Methyl-6,7,9,10,12,13,14,15,16,17-decahydro-24H-5,27:18,23-di(metheno)dibenzo[l,r]pyrrolo[3,4-o][1,4,7,11,20]dioxatriazacyclodocosine-24,26(25H)-dione] | 0.161 | 0.169 | 0.165 | 6.9 | – | 2184 | 0.4324 | 1766 | 0.2216 | – | 162790000 | 0.4343 | – | 189875000 | 0.4132 | – | – | –
3 | O=C1NC(=O)C2=C1c1cn(c3ncccc13)CCOCCOCCOCCn1cc2c2cccnc21 [Compound 167] | 0.804 | 0.903 | 0.853 | 109.0 | 0.9928 Fold over Wnt 3a/AA control | 5013 | 0.9928 | 6217 | 0.7801 | 0.9014 Fold over Wnt 3a/AA control | 337920000 | 0.9014 | 0.9515 Fold over Wnt 3a/AA control | 437235000 | 0.9515 | – | – | –
4 | O=C1NC(=O)C(c2nn(CCCO)c3ccccc23)=C1c1cn(-c2ccc3ccccc3c2)c2ccccc12 [Compound 13] | 0.767 | 0.789 | 0.778 | – | – | 4556 | – | 4783 | – | – | 306085000 | – | 0.7104 Fold over Wnt 3a/AA control | 326475000 | – | 92.6 | 0.902 | 0.817
5 | O=C1NC(=O)C2=C1c1cn(c3ncccc13)CCOCCOCCOCCOCCn1cc2c2cccnc21 [Compound 6, 10,11,13,14,16,17,19,20,22,23-Decahydro-1H-9,4:24,29-di(metheno)dipyrido[2,3-n:3′,2′-t]pyrrolo[3,4-q][1,4,7,10,13,22]tetraoxadiazacyclotetracosine-1,3(2H)-dione] | 0.706 | 0.672 | 0.689 | 83.9 | 1.9264 Fold over Wnt 3a/AA control | 9728 | 1.926 | 9964.5 | 1.25 | 0.9706 Fold over Wnt 3a/AA control | 363855000 | 0.9706 | 1.3832 Fold over Wnt 3a/AA control | 635655000 | 1.3832 | – | – | –
